Assay results: publication PMC6353076, “Impact of CodY protein on metabolism, sporulation and virulence in Clostridioides difficile ribotype 027” (PLoS ONE, 2019)

Target: T1, CdCodY GAF domain (Clostridioides difficile, UniProt Q18BE1)
T1 construct: gene codY; N-terminal GAF domain, CdCodY(1-156); six molecules in the asymmetric unit
Assay: X-ray crystal structure, […] A
Assay type: binding
Settings: GAF-domain effector pocket; contacts N40, Y42, D60, S62, F74, F101, E104, K110, S130

T1 sequence (Q18BE1 entry or part of it): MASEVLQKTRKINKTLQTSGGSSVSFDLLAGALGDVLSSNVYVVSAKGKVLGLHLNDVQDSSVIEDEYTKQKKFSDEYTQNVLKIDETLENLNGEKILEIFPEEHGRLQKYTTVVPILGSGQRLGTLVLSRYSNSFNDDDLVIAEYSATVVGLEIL

CC[C@H](C)[C@H](N)C(=O)O [isoleucine]
X-ray crystal structure, 1.7 A: The crystal structure of the GAF domain of CdCodY bound to isoleucine was solved
